Source: patent US4749703A, “Calcium antagonist piperazine derivatives, and compositions therefor” (Dainippon Pharmaceutical Co., Ltd., priority 1984, dated 1988)
Counter-ions that a name gives are not always drawn.

Assays:
[1] = system: methacholine-induced ST elevation; test: Preventive effect on methacholine-induced ST elevation (experimental model of variant angina); type: in vivo, Male SD strain rats; conditions: i.v.; for ST elevation, administn. of M (8 μg) after administn. of test compd. (at peak time): ± S.E.; for preventive effect on the ST elevation (in words): compared with diltiazem hydrochloride
Experimental: (2) Preventive effect on methacholine-induced ST elevation (effect in experimental model of variant angina)
The test was carried out according to the method of Sakai et al. [cf. J. Pharmacol. Methods, 5, 325-336 (1981)].
Male SD strain rats, weighing about 500 g, were anesthetized with 60 mg/kg (i.p.) of sodium pentobarbital. Lead II electrocardiogram was recorded. The ST elevation was produced with 8.0 μg of metacholine given into the coronary […] through the cannula inserted from the right carotid artery. The test compound, dissolved in 5% ethanol-physiological saline solution, was administered intravenously. The amplitude of ST elevation was measured by means of the computer 0.5, 5 and 10 minutes after the administration of the test compound and afterward at intervals of 10-minute. The effect of the test compound was evaluated by comparing the amplitude of ST elevation after administration of the test compound with that before the administration. Each group of 5 rats was used for each dose of the test compound.
The abbreviation M in the table represents metacholine.

[2] = system: vasopressin-induced ST depression; test: Preventive effect on vasopressin-induced ST depression (experimental model of angina pectoris); type: in vivo, Male Donryu strain rats; design: key to Preventive effect on ST depression, 7 hours / Preventive effect on ST depression, 1 hour / Preventive effect on ST depression, 5 hours / Preventive effect on ST depression, 3 hours: +: Significantly different from vehicle control (P < 0.05); -: No significant difference; conditions: for Preventive effect on ST depression, 1 hour: 1 hour following administration; for Preventive effect on ST depression, 3 hours: 3 hours following administration; for Preventive effect on ST depression, 5 hours: 5 hours following administration; for Preventive effect on ST depression, 7 hours: 7 hours following administration; for preventive effect on the ST depression (in words): p.o., compared with diltiazem hydrochloride
Experimental: (1) Preventive effect on vasopressin-induced ST depression (effect in experimental model of angina pectoris)
The test was carried out according to the method of Hatano et al. [cf. Pharmacometrics, 19, 311-317 (1980)].
Male Donryu strain rats, weighing 130-180 g, were anesthetized with 60 mg/kg (i.p.) of sodium pentobarbital. Lead II electrocardiogram was recorded. The ST depression produced with 0.2 IU/kg (i.v.) of vasopressin was recorded at intervals of a given period for 5 minutes after the administration of vasopressin. The test compound, suspended in 0.5% aqueous tragacanth solution, was administered orally 1, 3, 5 and 7 hours before the administration of vasopressin. The amplitude of ST depression was measured by means of the computer, and the data were analyzed statistically by two-dimensional analysis between the control group and the treated group to evaluate the effect of the test compound. Each group of 5 rats was used for each dose of the test compound.

[3] = in vivo; conditions: mouse, mortality for 7 days
Text: STD-ddY strain mice were used in groups of 10 animals each.

[4] = system: spontaneously hypertensive rats (SHR); test: Antihypertensive activity in spontaneously hypertensive rats (SHR); type: in vivo, male SHR (Okamoto and Aoki strain) rats; conditions: for duration of antihypertensive activity (in words): compared with commercially available calcium antagonists; for Peak time (time of maximum hypotensive effect): p.o.
Experimental: The animals used were male SHR [Okamoto and Aoki strain; cf. Jap. Circul. […] Proc. Soc. […] The other end of the cannula was exposed through the skin on the back of the neck and fixed. After 1 to 4 days, the aortic cannula was connected to a pressure transducer (produced by Nihon Koden Co., Ltd., Japan; Model MP-4T), and conscious blood pressure was measured by direct method. On the day of the experiment, the blood pressure was measured for one hour prior to dosing. The test compound, suspended in 0.5% aqueous tragacanth solution, was administered orally at a volume of 3.0 ml/kg and the blood pressure was measured continuously for 5 hours.
The changes of blood pressure are expressed by the mean pressure calculated from the values of systolic and diastolic pressure.

[5] = 0.3 mg/kg, * P < 0.05, ** P < 0.01

SMILES | peak time (preventive effect on ST elevation) ([1]; 0.1 mg/kg) [min] | ST elevation, administn. of M (8 μg) after administn. of test compd. (at peak time) ([1]; 0.1 mg/kg, * P < 0.05) | peak time (preventive effect on ST elevation) ([1]; 0.3 mg/kg) [min] | ST elevation, administn. of M (8 μg) after administn. of test compd. (at peak time) [1, 5] | preventive effect on the ST elevation (in words) [1] | Preventive effect on ST depression, 1 hour ([2]; 3 mg/kg p.o.) | Preventive effect on ST depression, 3 hours ([2]; 3 mg/kg p.o.) | Preventive effect on ST depression, 1 hour ([2]; 10 mg/kg p.o.) | Preventive effect on ST depression, 5 hours ([2]; 10 mg/kg p.o.) | Preventive effect on ST depression, 7 hours ([2]; 30 mg/kg p.o.) | Peak time (time of maximum hypotensive effect) ([4]; 30 mg/kg) [h] | maximum hypotensive effect (decrease compared with the initial blood pressure) ([4]; oral, 30 mg/kg) | time of maximum hypotensive effect ([4]; oral, 30 mg/kg) [h] | other results
O=C(CCCN1CCN(c2ccccc2)CC1)NC1c2ccccc2CSc2ccccc21 (stereo not shown) [6(1), 11-[4-(4-phenyl-1-piperazinyl)butyrylamino]-6,11-dihydrodibenzo[b,e]thiepin] | 0.5 | +0.15 ± 0.05 ΔmV | 5 | +0.07 ± 0.01 ΔmV | preventive effect on the ST elevation comparable to that of diltiazem hydrochloride |  |  |  |  |  |  |  |  | 
O=C(CCCN1CCN(c2ccc(F)cc2)CC1)NC1c2ccccc2C=Cc2ccccc21 [79(3), 5-[4-[4-(4-fluorophenyl)-1-piperazinyl]butyrylamino]-5H-dibenzo[a,d]cycloheptene] | 5 | +0.12 ± 0.02 ΔmV | 0.5 | +0.04 ± 0.02 ΔmV | preventive effect on the ST elevation comparable to that of diltiazem hydrochloride | + | + | + | + | + |  |  |  | Preventive effect on ST depression, 5 hours ([2]; 3 mg/kg p.o.): -; Preventive effect on ST depression, 7 hours ([2]; 10 mg/kg p.o.): -; preventive effect on the ST depression (in words) [2]: more prolonged preventive effect on the ST depression than diltiazem hydrochloride; peak time (preventive effect on ST elevation) ([1]; 1.0 mg/kg): 0.5 min; ST elevation, administn. of M (8 μg) after administn. of test compd. (at peak time) ([1]; 1.0 mg/kg, ** P < 0.01): +0.08 ± 0.01 ΔmV; LD50 at 168 h ([3]; ip, single intraperitoneal administration): > 1000 mg/kg; LD50 at 168 h ([3]; single oral administration): > 4000 mg/kg
O=C(CCCN1CCN(c2ccc(F)cc2)CC1)NC1c2ccccc2CSc2ccccc21 (stereo not shown) [Example 1(1), 11-[4-[4-(4-fluorophenyl)-1-piperazinyl]butyrylamino]-6,11-dihydrodibenzo[b,e]thiepin] |  |  |  |  |  |  |  |  |  |  |  |  |  | duration of antihypertensive activity (in words) [4]: longer duration of antihypertensive activity than that of the commercially available calcium antagonists
Cc1ccc2c(c1)C(NC(=O)CCCN1CCN(c3ccc(F)cc3)CC1)c1ccccc1CS2 (stereo not shown) [2(1), 11-[4-[4-(4-fluorophenyl)-1-piperazinyl]butyrylamino]-2-methyl-6,11-dihydrodibenzo[b,e]thiepin] |  |  |  |  |  |  |  |  |  |  |  |  |  | duration of antihypertensive activity (in words) [4]: longer duration of antihypertensive activity than that of the commercially available calcium antagonists
O=C(CCCN1CCN(c2ccc(F)cc2)CC1)NC1c2ccccc2C[S+]([O-])c2ccccc21 (single isomer, unassigned) [Example 136, 11-[4-[4-(4-fluorophenyl)-1-piperazinyl]butyrylamino]-6,11-dihydrodibenzo[b,e]thiepin-5-oxide-A] |  |  |  |  |  |  |  |  |  |  | 5 | 12-14% | 4 to 5 | 
Cc1ccc2c(c1)C(NC(=O)CCCN1CCN(c3ccc(F)cc3)CC1)c1ccccc1CS2 (stereo not shown) [2(3), 11-[4-[4-(4-fluorophenyl)-1-piperazinyl]butyrylamino]-2-methyl-6,11-dihydrodibenzo[b,e]thiepin] | 5 | +0.19 ± 0.05 ΔmV | 0.5 | +0.13 ± 0.02 ΔmV | preventive effect on the ST elevation comparable to that of diltiazem hydrochloride | - | - | + | + | + | 4 | 12-14% | 4 to 5 | Preventive effect on ST depression, 5 hours ([2]; 3 mg/kg p.o.): -; Preventive effect on ST depression, 7 hours ([2]; 3 mg/kg p.o.): -; Preventive effect on ST depression, 3 hours ([2]; 10 mg/kg p.o.): +; Preventive effect on ST depression, 7 hours ([2]; 10 mg/kg p.o.): -; Preventive effect on ST depression, 1 hour ([2]; 30 mg/kg p.o.): +; preventive effect on the ST depression (in words) [2]: more prolonged preventive effect on the ST depression than diltiazem hydrochloride
O=C(CCCN1CCN(c2ccc(F)cc2)CC1)NC1c2ccccc2CS(=O)(=O)c2ccccc21 (stereo not shown) [Example 138, 11-[4-[4-(4-fluorophenyl)-1-piperazinyl]butyrylamino]-6,11-dihydrodibenzo[b,e]thiepin-5,5-dioxide] |  |  |  |  |  |  |  |  |  |  | 5 | 12-14% | 4 to 5 | 
O=C(CCCN1CCN(c2ccc(F)cc2)CC1)NC1c2ccccc2CSc2cc(F)ccc21 (stereo not shown) [Example 42, 3-fluoro-11-[4[4-(4-fluorophenyl)-1-piperazinyl]butyrylamino]-6,11-dihydrodibenzo[b,e]thiepin] |  |  |  |  |  |  |  |  |  |  | 4 | 12-14% | 4 to 5 | 
COC(=O)C1=C(C)NC(C)=C(C(=O)OC)C1c1ccccc1[N+](=O)[O-] [Nifedipine, reference compound] | 20 | +0.08 ± 0.02 ΔmV |  |  |  |  |  |  |  |  |  |  |  | Peak time (time of maximum hypotensive effect) ([4]; 3 mg/kg): 0.5 h; decrease compared with the initial blood pressure at 5 hours after dosing ([4]; oral): 7%; maximum hypotensive effect (decrease compared with the initial blood pressure) ([4]; oral, 3 mg/kg): 17%; time of maximum hypotensive effect ([4]; oral, 3 mg/kg): 0.5 h; Preventive effect on ST depression, 1 hour ([2]; 0.01 mg/kg p.o.): -; Preventive effect on ST depression, 3 hours ([2]; 0.01 mg/kg p.o.): -; Preventive effect on ST depression, 1 hour ([2]; 0.1 mg/kg p.o.): +; Preventive effect on ST depression, 3 hours ([2]; 0.1 mg/kg p.o.): -; Preventive effect on ST depression, 5 hours ([2]; 0.1 mg/kg p.o.): -; peak time (preventive effect on ST elevation) ([1]; 0.03 mg/kg): 10 min; ST elevation, administn. of M (8 μg) after administn. of test compd. (at peak time) ([1]; 0.03 mg/kg): +0.17 ± 0.02 ΔmV
COc1ccc([C@@H]2Sc3ccccc3N(CCN(C)C)C(=O)[C@@H]2OC(C)=O)cc1 [Diltiazem hydrochloride, reference compound] | 10 | +0.15 ± 0.03 ΔmV | 10 | +0.06 ± 0.02 ΔmV |  | - | - | + | - | - | 0.333 |  |  | Peak time (time of maximum hypotensive effect) ([4]; 50 mg/kg): 0.333 h; decrease compared with the initial blood pressure at 5 hours after dosing ([4]; oral): 3%; reduction of blood pressure (in words) ([4]; oral, 30 mg/kg): did not reduce significantly blood pressures; maximum effect (decrease compared with the initial blood pressure) ([4]; oral, 50 mg/kg): 13%; time of maximum effect ([4]; oral, 50 mg/kg): 20 min; Preventive effect on ST depression, 3 hours ([2]; 10 mg/kg p.o.): +; Preventive effect on ST depression, 1 hour ([2]; 30 mg/kg p.o.): +; Preventive effect on ST depression, 5 hours ([2]; 30 mg/kg p.o.): +; peak time (preventive effect on ST elevation) ([1]; 1.0 mg/kg): 5 min; ST elevation, administn. of M (8 μg) after administn. of test compd. (at peak time) ([1]; 1.0 mg/kg, ** P < 0.01): +0.09 ± 0.02 ΔmV
